Converted amounts (≈) assume the structure as drawn. Like-named read-outs stand apart in the source and are kept apart here.
What was measured:
[1] = tested on: Enterococcus faecalis MB 5407; assay: MIC, liquid turbidimetric microtiter method in brain heart infusion broth; format: cell-based; settings: MB5407
Text: (§1) The antibacterial activity of 9-deoxo-9(Z)-hydroxyiminoerythromycin A (II) against a panel of aerobic Gram positive and negative bacteria is shown in the following Table. The assay employs a liquid turbidimetric microtiter method for determination of the minimum inhibitory concentration (MIC) in brain heart infusion broth. […] The MIC is generally not an absolute value but rather a concentration range that falls within a two-fold dilution limit. Generally twelve two-fold dilutions of the test compound are employed with the initial concentration set at 128 mcg/ml.

[2] = tested on: Enterococcus faecium MB 5416; assay: as above; format: cell-based; settings: MB5416
Text: as §1

[3] = tested on: Klebsiella pneumoniae MB4005; assay: as above; format: cell-based
Text: as §1

[4] = tested on: Staphylococcus aureus MB 2865; assay: as above; format: cell-based; settings: MB2865
Text: as §1

[5] = tested on: Staphylococcus epidermidis MB 5414; assay: as above; format: cell-based; settings: MB5414
Text: as §1

[6] = tested on: Staphylococcus haemolyticus MB 5412; assay: as above; format: cell-based; settings: MB5412
Text: as §1

[7] = tested on: Steptococcus pneumoniae CL 2883; assay: as above; format: cell-based
Text: as §1

[8] = tested on: Streptococcus agalactiae CL 1343; assay: as above; format: cell-based; settings: CL1343
Text: as §1

[9] = tested on: Streptococcus pyogenes MB 2874; assay: as above; format: cell-based; settings: MB2874
Text: as §1

[10] = tested on: Streptococcus pyogenes MB 5406; assay: as above; format: cell-based; settings: MB5406
Text: as §1

[11] = tested on: Streptococcus viridans CL 2943; assay: as above; format: cell-based; settings: CL2943
Text: as §1

[12] = tested on: Yersinia enterocoltica CL 1598; assay: as above; format: cell-based; settings: CL1598
Text: as §1

[13] = tested on: Escherichia coli MB 2884; assay: as above; format: cell-based; settings: MB2884
Text: (§2) The assay employs a liquid turbidimetric microtiter method for determination of the minimum inhibitory concentration (MIC) in brain heart infusion broth. […] The MIC is generally not an absolute value but rather a concentration range that falls within a two-fold dilution limit.

[14] = tested on: Escherichia coli MB 4926; assay: as above; format: cell-based; settings: MB4926
Text: as §2

[15] = tested on: Pseudomonas stutzeri MB 1231; assay: as above; format: cell-based; settings: Stutzerimonas stutzeri, MB1231
Text: as §2

[16] = tested on: panel of aerobic Gram positive and negative bacteria; assay: antibacterial activity in vitro against a panel of bacteria; format: cell-based
Text: as §1

[17] = isomer conversion under the MIC assay conditions; format: physicochemical
Text: as §1

[18] = tested on: Gram-positive microorganisms, e.g. Staphylococcus aureaus and Streptococcus pyogenes, and certain Gram-negative microorganisms; assay: in vivo antibacterial activity, infected mice treated orally or subcutaneously
Text: Extrapolation of such in vivo tests to support for human utility for macrolide compounds is likewise taught in U.S. Pat. No. 4,518,590, cited above.

[19] = Enterococcus faecalis MB 5407, brain heart infusion broth, read-out: MIC
[20] = Enterococcus faecium MB 5416, brain heart infusion broth, read-out: MIC
[21] = Klebsiella pneumoniae MB4005, brain heart infusion broth, read-out: MIC
[22] = Staphylococcus aureus MB 2865, brain heart infusion broth, read-out: MIC
[23] = Staphylococcus epidermidis MB 5414, brain heart infusion broth, read-out: MIC
[24] = Staphylococcus haemolyticus MB 5412, brain heart infusion broth, read-out: MIC
[25] = Steptococcus pneumoniae CL 2883, brain heart infusion broth, read-out: MIC
[26] = Streptococcus agalactiae CL 1343, brain heart infusion broth, read-out: MIC
[27] = Streptococcus pyogenes MB 2874, brain heart infusion broth, read-out: MIC
[28] = Streptococcus pyogenes MB 5406, brain heart infusion broth, read-out: MIC
[29] = Streptococcus viridans CL 2943, brain heart infusion broth, read-out: MIC
[30] = Yersinia enterocoltica CL 1598, brain heart infusion broth, read-out: MIC

Row | Compound | MIC [1, 19] [µg/mL] | MIC [2, 20] [µg/mL] | MIC [3, 21] [µg/mL] | MIC [4, 22] [µg/mL] | MIC [5, 23] [µg/mL] | MIC [6, 24] [µg/mL] | MIC [7, 25] [µg/mL] | MIC [8, 26] [µg/mL] | MIC [9, 27] [µg/mL] | MIC [10, 28] [µg/mL] | MIC [11, 29] [µg/mL] | MIC [12, 30] [µg/mL] | MIC [13] [µg/mL] | MIC [14] [µg/mL] | MIC [15] [µg/mL] | also measured
1 | CC[C@H]1OC(=O)[C@H](C)[C@@H](O[C@H]2C[C@@](C)(OC)[C@@H](O)[C@H](C)O2)[C@H](C)[C@@H](O[C@@H]2O[C@H](C)C[C@H](N(C)C)[C@H]2O)[C@](C)(O)C[C@@H](C)/C(=N/O)[C@H](C)[C@@H](O)[C@]1(C)O [(II), 9-Deoxo-9(Z)-hydroxyiminoerythromycin A] | 2 (≈ 2.67 µM) | 0.25 (≈ 0.334 µM) | 32 (≈ 42.7 µM) | 0.25 (≈ 0.334 µM) | 0.12 (≈ 0.16 µM) | 0.12 (≈ 0.16 µM) | ≤ 0.06 | ≤ 0.06 | ≤ 0.06 | 32 (≈ 42.7 µM) | ≤ 0.06 | 32 (≈ 42.7 µM) | 16 (≈ 21.4 µM) | 0.5 (≈ 0.668 µM) | ≤ 0.06 | activity in vitro (in words) ([16]; MIC panel, compared with (III) and erythromycin A (I)): comparable with the activities of the known compounds 9-deoxo-9(E)-hydroxyiminoerythromycin A (III) and erythromycin A (I); in vitro activity against Gram-positive and certain Gram-negative microorganisms ([16]; e.g. Staphylococcus aureas, Streptococcus pyogenes, certain Gram-negative cocci): exhibits in vitro activity against a variety of Gram-positive microorganisms, e.g. Staphylococcus aureas and Streptococcus pyogenes, and against certain Gram-negative microorganisms; conversion of (Z)isomer to (E)isomer [17]: An undetermined fraction of the (Z)isomer is converting; in vivo activity compared with in vitro activity ([18]; as regards susceptible organisms): more limited than its in vitro activity; in vivo activity ([18]; oral and parenteral routes): active in vivo versus a variety of Gram-positive microorganisms, e.g. Staphylococcus aureaus and Streptococcus pyogenes, and also certain Gram-negative microorganisms
2 | CC[C@H]1OC(=O)[C@H](C)[C@@H](O[C@H]2C[C@@](C)(OC)[C@@H](O)[C@H](C)O2)[C@H](C)[C@@H](O[C@@H]2O[C@H](C)C[C@H](N(C)C)[C@H]2O)[C@](C)(O)C[C@@H](C)C(=O)[C@H](C)[C@@H](O)[C@]1(C)O [(I), Erythromycin A] |  |  |  |  |  |  |  |  |  |  |  |  | 16 (≈ 21.8 µM) | 0.25 (≈ 0.341 µM) | ≤ 0.06 | MIC ([1]; Enterococcus faecalis): 1 µg/mL (≈ 1.36 µM); MIC ([2]; Enterococcus faecium): 0.12 µg/mL (≈ 0.164 µM); MIC ([3]; Klebsiella pneumoniae, MB4005): 32 µg/mL (≈ 43.6 µM); MIC ([4]; Staphylococcus aureus): 0.25 µg/mL (≈ 0.341 µM); MIC ([5]; Staphylococcus epidermidis): 0.12 µg/mL (≈ 0.164 µM); MIC ([6]; Staphylococcus haemolyticus): 0.12 µg/mL (≈ 0.164 µM); MIC [7]: ≤ 0.06 µg/mL; MIC ([8]; Streptococcus agalactiae): ≤ 0.06 µg/mL; MIC ([9]; Streptococcus pyogenes): ≤ 0.06 µg/mL; MIC ([10]; Streptococcus pyogenes): 16 µg/mL (≈ 21.8 µM); MIC ([11]; Streptococcus viridans): ≤ 0.06 µg/mL; MIC ([12]; Yersinia): 32 µg/mL (≈ 43.6 µM)
3 | CC[C@H]1OC(=O)[C@H](C)[C@@H](O[C@H]2C[C@@](C)(OC)[C@@H](O)[C@H](C)O2)[C@H](C)[C@@H](O[C@@H]2O[C@H](C)C[C@H](N(C)C)[C@H]2O)[C@](C)(O)C[C@@H](C)/C(=N\O)[C@H](C)[C@@H](O)[C@]1(C)O [(III), 9-Deoxo-9(E)-hydroxyiminoerythromycin A] | 0.5 (≈ 0.668 µM) | 0.12 (≈ 0.16 µM) | 32 (≈ 42.7 µM) | 0.25 (≈ 0.334 µM) | 0.12 (≈ 0.16 µM) | 0.12 (≈ 0.16 µM) | 0.12 (≈ 0.16 µM) | ≤ 0.06 | ≤ 0.06 | 16 (≈ 21.4 µM) | ≤ 0.06 | 16 (≈ 21.4 µM) | 32 (≈ 42.7 µM) | 0.25 (≈ 0.334 µM) | 1 (≈ 1.34 µM) | 
